The data set can be described thus: RP, Agilent ZORBAX Eclipse Plus C18, 150 × 2.1 mm, 3.5 µm, 40 °C, 0.3 mL/min, estimated dead time 1.1 min; A: water + 0.1% formic acid; B: acetonitrile + 0.1% formic acid; gradient (min/%B) 0/2 1/2 2/20 16.5/98 22/98. To be noted: stereoisomer not certain.

Each structure is given as a SMILES string.

As for `COc1nc(NC(C)C)nc(NC(C)C)n1`, the LC retention time was 7.39 min.

In the case of `O=C(C[P+](c1ccccc1)(c1ccccc1)c1ccccc1)OCc1ccccc1`, the LC retention time is 9.2 min.

As to `O=c1[nH]c(=O)c2ncn(C3OC(CO)C(O)C3O)c2[nH]1` (stereo not drawn), the LC retention time was 4.35 min.

Consider `CCC(CC)Nc1c([N+](=O)[O-])cc(C)c(C)c1[N+](=O)[O-]`, for which the LC retention time was 16.2 min.

In the case of `Cc1ccc(NC(=O)c2ccc(CN3CCN(C)CC3)cc2)cc1Nc1nccc(-c2cccnc2)n1`, the LC retention time was 6.15 min.

On to `CC(C)(C)NCC(O)c1ccc(O)c(CO)c1` (stereo not drawn), for which the LC retention time is 4.69 min.

For `c1ccc2nc3ccccc3cc2c1`, the LC retention time was 5.78 min.

As to `CN(C)CC(c1ccc(O)cc1)C1(O)CCCCC1` (stereo not drawn), the LC retention time was 5.37 min.

Take `CCCCN1C=CN(C)C1C` (stereo not drawn): the LC retention time is 4.73 min.

Take `CN(C)[P+](On1nnc2ccccc21)(N(C)C)N(C)C`: the LC retention time was 5.97 min.

For the compound `CC(Cc1ccc(C(C)C(=O)O)cc1)C(=O)O` (stereo not drawn), the LC retention time was 8.48 min.

For `Cc1cccc(Nc2ccncc2S(=O)(=O)NC(=O)NC(C)C)c1`, the LC retention time was 7.63 min.

With `CCNCC(O)COc1ccc(CCOC)cc1` (stereo not drawn), the LC retention time was 5.42 min.

For the compound `O=C(O)c1c2ccccc2nc2ccccc12`, the LC retention time is 4.66 min.

Turning to `CC12CC=C3c4ccc(O)cc4CCC3C1CCC2(O)CC#N` (stereo not drawn), the LC retention time is 9.96 min.

As to `CCOC(=O)c1cncn1C(C)c1ccccc1` (stereo not drawn), the LC retention time is 8.83 min.

`COc1ccc2cc(C(C)C(=O)O)ccc2c1` (stereo not drawn): the LC retention time is 10.9 min.

As for `CC1(C)OCC2OC3(C(=O)O)OC(C)(C)OC3C2O1` (stereo not drawn), the LC retention time is 7.35 min.

Consider `COc1ccc2nc(S(=O)Cc3ncc(C)c(OC)c3C)[nH]c2c1` (stereo not drawn), for which the LC retention time was 6.46 min.

As for `CCNC(=O)NC1CCCCC1`, the LC retention time was 7.7 min.

Consider `CCN(CC)C(=O)C(C)Oc1cccc2ccccc12` (stereo not drawn), for which the LC retention time was 12.6 min.

On to `COc1cc(Cc2c(N)nc(N)[nH]c2=O)cc(OC)c1OC`, for which the LC retention time was 5.43 min.

`O=C(OC1CC2CCC(C1)[N+]21CCCC1)C(O)(c1ccccc1)c1ccccc1` (stereo not drawn): the LC retention time is 7.41 min.

Regarding `COc1ccc2nc(SCc3[nH]cc(C)c(=O)c3C)[nH]c2c1`, the LC retention time was 6.17 min.

As to `CSc1nc(NC2CC2)nc(NC(C)(C)C)n1`, the LC retention time was 10.2 min.

Turning to `CN(C)CCOC(c1ccccc1)c1ccccc1`, the LC retention time was 7.72 min.

For `CC(C(=O)O)c1ccc2cc(O)ccc2c1` (stereo not drawn), the LC retention time was 8.5 min.

For the compound `Nc1ccc2c(c1)C(=O)OC21c2ccc(O)cc2Oc2cc(O)ccc21`, the LC retention time is 8.16 min.

For the compound `CCN(Cc1cccc(S(=O)(=O)O)c1)c1ccc(C(=C2C=CC(=[N+](CC)Cc3cccc(S(=O)(=O)O)c3)C=C2)c2ccccc2S(=O)(=O)[O-])cc1`, the LC retention time is 7.08 min.

For the compound `O=C(NO)c1ccccc1`, the LC retention time is 4.89 min.

In the case of `CCCCCCCCCCCCCCCC[N+](C)(C)CC`, the LC retention time is 13 min.

Take `Cn1c(=O)[nH]c(=O)c2[nH]cnc21`: the LC retention time is 4.5 min.

Consider `O=C(O)CC1(C(=O)O)CCCCC1`, for which the LC retention time was 7.49 min.

`c1ccc([P+](c2ccccc2)(c2ccccc2)C2CC2)cc1`: the LC retention time was 7.79 min.

For the compound `CCCCCCCCCCCCCCCC[P+](CCCC)(CCCC)CCCC`, the LC retention time was 16 min.

With `O=C(CO)Nc1ccccc1`, the LC retention time is 5.9 min.

Turning to `COc1ccc(C(=O)c2ccccc2O)c(O)c1`, the LC retention time is 11.8 min.

For `CC(C)C(=O)c1ccc(C(C)C(=O)O)cc1` (stereo not drawn), the LC retention time was 10.2 min.

In the case of `CC1(C)CC(OC(=O)CCCCCCCCC(=O)OC2CC(C)(C)NC(C)(C)C2)CC(C)(C)N1`, the LC retention time was 6.57 min.

Turning to `COc1ccc2nc(SCc3ncc(C(=O)O)c(OC)c3C)[nH]c2c1`, the LC retention time is 5.75 min.

In the case of `Oc1ccc(Nc2ccccc2)cc1`, the LC retention time is 10 min.

For `CNC(=C[N+](=O)[O-])NCCSCc1ccc(CN(C)C)o1`, the LC retention time is 4.83 min.

For `COC(=O)C1CCC(=O)N1` (stereo not drawn), the LC retention time was 4.58 min.

As to `Nc1nc2c(ncn2C2CC(O)C(CO)O2)c(=O)[nH]1` (stereo not drawn), the LC retention time was 4.09 min.

For `COc1cccc(OC)c1OC`, the LC retention time was 9.03 min.

For `COc1cc(Cc2cnc(N)nc2N)cc(O)c1OC`, the LC retention time was 5.02 min.

Regarding `CSc1nc(N)nc2nc[nH]c12`, the LC retention time is 4.91 min.

Regarding `CCCCCCCC[P+](CCCCCCCC)(CCCCCCCC)CCCCCCCC`, the LC retention time was 16.4 min.

With `CC1=CC(C)(C)Nc2ccccc21`, the LC retention time is 12.5 min.

As to `CN1C(=O)NC(=O)C1(C)C`, the LC retention time was 5.06 min.

As for `CCCC[N+]1(C)CCCCC1`, the LC retention time was 4.66 min.

With `CCP(=O)(c1ccccc1)c1ccccc1`, the LC retention time is 8.82 min.

Regarding `CCOC(=O)CC(SP(=S)(OC)OC)C(=O)OCC` (stereo not drawn), the LC retention time is 12.9 min.

Consider `CCOc1ccc(NC(C)=O)cc1`, for which the LC retention time is 7.62 min.

With `COc1ccc(OC)cc1`, the LC retention time is 10.1 min.

As to `CCCCCCCCCCCCCC[N+](C)(C)Cc1ccccc1`, the LC retention time is 12.8 min.

For the compound `CCCCCCCCCCCCCCCCN1C=CC=CC1`, the LC retention time was 13 min.

For `Nc1ccc(S(=O)(=O)Nc2nccs2)cc1`, the LC retention time was 5.37 min.

As for `c1ccc(C2CN3CCSC3=N2)cc1` (stereo not drawn), the LC retention time was 5.02 min.

`CCOC(=O)NCCOc1ccc(Oc2ccccc2)cc1`: the LC retention time was 13.1 min.

`COC(=O)NN=Cc1c[n+]([O-])c2ccccc2[n+]1[O-]`: the LC retention time was 5.82 min.

With `c1ccc([P+](CCC2OCCCO2)(c2ccccc2)c2ccccc2)cc1`, the LC retention time is 7.98 min.

Take `CCN1CCN(C(=O)NC(C(=O)NC2C(=O)N3C(C(=O)O)=C(CSc4nnnn4C)CSC23)c2ccc(O)cc2)C(=O)C1=O` (stereo not drawn): the LC retention time is 6.86 min.

On to `O=P(Oc1ccccc1)(Oc1ccccc1)Oc1cccc(OP(=O)(Oc2ccccc2)Oc2ccccc2)c1`, for which the LC retention time was 15.9 min.

On to `CCC1OC(=O)C(C)C(OC2CC(C)(OC)C(O)C(C)O2)C(C)C(OC2OC(C)CC(N(C)C)C2O)C(C)(O)CC(C)C(=O)C(C)C(O)C1(C)O` (stereo not drawn), for which the LC retention time is 7.85 min.

For the compound `Cn1cnc2c1c(=O)[nH]c(=O)n2C`, the LC retention time is 5.24 min.

Turning to `CCCCC1C(=O)N(c2ccccc2)N(c2ccccc2)C1=O`, the LC retention time is 13.1 min.

For `O=C1CC2(CCCCC2)CO1`, the LC retention time was 9.65 min.

With `COc1ccccc1NC(C)=O`, the LC retention time was 7.37 min.

Take `Nc1ncnc2c1ncn2C1CC(O)C(CO)O1` (stereo not drawn): the LC retention time is 3.4 min.

On to `CC(C)NCC(O)COc1ccc(CC(=O)O)cc1` (stereo not drawn), for which the LC retention time was 4.89 min.

In the case of `CCc1cccc(C)c1N`, the LC retention time was 7.96 min.

In the case of `COCC(=O)N(c1c(C)cccc1C)C(C)C(=O)OC` (stereo not drawn), the LC retention time is 10.2 min.

Consider `CNc1c(C)n(C)n(-c2ccccc2)c1=O`, for which the LC retention time is 4.82 min.

`Cc1ccc(N)cc1N`: the LC retention time was 2.14 min.

In the case of `C[N+](C)(C)Cc1ccccc1`, the LC retention time is 4.46 min.

Regarding `c1ccc(Nc2ccc(Nc3ccccc3)cc2)cc1`, the LC retention time is 14.5 min.

On to `COCC(C)N(C(=O)C(=O)O)c1c(C)csc1C` (stereo not drawn), for which the LC retention time is 8.21 min.

For `CCCC1CC(C(=O)NC(C(C)O)C2OC(SC)C(O)C(O)C2O)N(C)C1` (stereo not drawn), the LC retention time was 4.88 min.

Consider `COc1ccc(C(CN(C)C)C2(O)CCCCC2)cc1` (stereo not drawn), for which the LC retention time was 6.63 min.

In the case of `CCC(CC)OC1C=C(C(=O)O)CC(N)C1NC(C)=O` (stereo not drawn), the LC retention time is 5.65 min.

On to `c1ccc2scnc2c1`, for which the LC retention time is 8.78 min.

For `CCCCCCCCCC[N+](C)(C)Cc1ccccc1`, the LC retention time was 10.4 min.

On to `CCCC(=O)Nc1ccc(OCC(O)CNC(C)C)c(C(C)=O)c1` (stereo not drawn), for which the LC retention time was 5.96 min.

With `COc1ccc(Cc2cnc(N)nc2N)cc1OC`, the LC retention time is 4.97 min.

`CCCCOCCOP(=O)(OCCOCCCC)OCCOCCCC`: the LC retention time was 14.6 min.

Consider `COC1=C(C)C(=O)C2=C(C1=O)C(COC(N)=O)C1(OC)C3NC3CN21` (stereo not drawn), for which the LC retention time was 7.05 min.

As for `COc1cc(O)c(C(=O)c2ccccc2)cc1S(=O)(=O)O`, the LC retention time is 7.48 min.

With `O=S(=O)(O)c1ccc2nc(-c3ccccc3)[nH]c2c1`, the LC retention time is 5.04 min.

Consider `c1ccc2sc(N3CCOCC3)nc2c1`, for which the LC retention time was 9.36 min.

For the compound `C[N+](C)(Cc1ccccc1)Cc1ccccc1`, the LC retention time is 6.13 min.

Take `CCOc1ccccc1NC(=O)C(=O)Nc1ccccc1CC`: the LC retention time was 15.4 min.

For the compound `O=c1[nH]c(=S)c2[nH]cnc2[nH]1`, the LC retention time was 4.02 min.

For the compound `Cc1ccccc1N=C(N)N=C(N)N`, the LC retention time is 4.67 min.

In the case of `CNC(=O)Oc1cccc2ccccc12`, the LC retention time was 10.1 min.

With `CCCCP(=O)(CCCC)CCCC`, the LC retention time was 11.1 min.

Regarding `CCCCCCCCCC[N+](C)(C)CCCCCCCCCC`, the LC retention time was 13.4 min.

Regarding `C[N+](C)(C)c1ccccc1`, the LC retention time was 2.83 min.

Take `CCCCC(=O)N(Cc1ccc(-c2ccccc2-c2nn[nH]n2)cc1)C(C(=O)O)C(C)C` (stereo not drawn): the LC retention time is 11.4 min.

Take `CCCN(CCC)C(=O)SCc1ccccc1`: the LC retention time was 15.5 min.

Regarding `CCCC(=NOCC)C1=C(O)CC(CC(C)SCC)CC1=O` (stereo not drawn), the LC retention time was 16.1 min.

Consider `O=c1[nH]c(=O)c2cn[nH]c2[nH]1`, for which the LC retention time was 2.85 min.

In the case of `COCC(O)c1ccc(OCC(O)CNC(C)C)cc1` (stereo not drawn), the LC retention time was 5.06 min.

The record behind these values is the RepoRT retention time repository (doi:10.1016/j.chroma.2015.11.014).
